{"source": "patent US20220378706A1", "about": "“PHARMACEUTICAL COMPOSITION COMPRISING PDE9 INHIBITOR” (Eisai R&D Management Co., Ltd., priority 2017, published 2022)", "assay": "Single dose clinical study: plasma Compound A pharmacokinetics", "type": "in vivo, human", "conditions": "for AUC(0-inf) / Cmax / Vd/F / half-life / Tmax / AUC(0-t): human, po; for AUC(0-inf): read-out: AUC(0-inf) GM; for Tmax: read-out: tmax Median; for tlag Median (Min, Max): Part B 100 mg cohort", "description": "This was a single center, single dose, randomized, double blind, placebo controlled study in healthy subjects. It consisted of 4 parts: Parts A, B, C, and D. Each of the four study parts had 2 phases: Prerandomization Phase and Randomization Phase. The Prerandomization Phase lasted up to 30 days and consisted of a Screening Period and a Baseline Period, during which each subject's study eligibility was determined and baseline assessments were performed.\nIn Part A, there were 8 sequential cohorts of healthy adult subjects (18-50 years of age). Subjects were randomly assigned to Compound A or placebo in a ratio of 6:2, respectively. Subjects in the Compound A cohorts were treated with single ascending doses of 10, 25, 50, 100, 200, 400, 800, or 1200 mg.\nIn Part B, there were 4 cohorts of healthy adult subjects (18-50 years of age). There were 8 subjects in Cohort 1, with 6 subjects randomly assigned to receive single doses of Compound A (400 mg) and 2 subjects randomly assigned to receive placebo. There were 7 subjects in Cohort 2 and Cohort 3, each with 6 subjects randomly assigned to receive single doses of Compound A (100 and 200 mg, respectively) and 1 subject randomly assigned to receive placebo. The dose of 100 mg selected in Cohort 2 was based on preliminary analysis of Cohort 1 data; this dose was predicted from PK/PD modeling to achieve a sustained CSF cGMP increase from baseline of approximately 200% when administered to steady state, and thereby provided a potentially therapeutic dose for further evaluation in future studies. There were 7 subjects in Cohort 4, with 6 subjects randomly assigned to receive a single dose of Compound A (50 mg [n=3] or 75 mg [n=3]) and 1 subject randomly assigned to receive placebo. The doses for Cohorts 3 and 4 were selected based on PK/PD modeling of the data in Cohorts 1 and 2.\nSubjects in Cohort 2 who had received Compound A 100 mg or placebo under fasted conditions (1st Treatment Period) also participated in an evaluation of food effect on the PK of Compound A (2nd Treatment Period). After a washout period of at least 13 days (or 5 half-lives of Compound A, whichever was longer), subjects were admitted to the clinic for baseline assessments (2nd Baseline Period) and then received a single dose of the same treatment (Compound A 100 mg or placebo) after consuming a high fat and high calorie meal over 30 minutes. Blood PK samples were collected at prespecified time points. Safety evaluations were also assessed. CSF was not collected for PD evaluation during the 2nd Treatment Period. A Follow Up Visit occurred on Day 10 of Treatment Period 2.\nIn Part C, there was 1 cohort of 8 healthy elderly subjects (65 to 85 years of age) randomly assigned to receive a single dose of Compound A 100 mg or placebo in a ratio of 6:2, respectively.\nIn Part D, 3 cohorts of healthy adult Japanese subjects were randomized in parallel. There were 7 subjects in each cohort and subjects were randomly assigned to receive single doses of Compound A (25, 100, or 400 mg) or placebo in a ratio of 6:1, respectively.\nBlood samples for determination of plasma Compound A concentrations were collected from predose to 216 hours postdose. On Day 1, blood PK samples were collected at predose and postdose 0.5 (30 minutes), 1, 1.5, 2, 3, 4, 5, 6, 8, 12, and 18 hours. Thereafter, samples were collected on Day 2 (24 and 36 hours postdose), Day 3 (48 hours postdose), Day 4 (72 hours postdose), Day 5 (96 hours postdose), Day 6 (120 hours postdose), Day 7 (144 hours postdose), and Day 10 (216 hours postdose).\nBlood samples for determination of plasma Compound A concentrations were collected from predose to 216 hours postdose. For all cohorts, blood PK samples were collected on Day 1 at predose and postdose at 0.5 (30 minutes), 1, 1.5, 2, 3, 4, 5, 6, 8, 10, 12, and 18 hours. […]", "key": {"[1]": {"conditions": "plasma, 400 mg, plasma, Non-Japanese Subjects (Parts A,B), single oral 400 mg"}, "[2]": {"conditions": "plasma, 400 mg, plasma, healthy adults (Parts A,B), single oral 400 mg, fasted"}, "[3]": {"conditions": "plasma, 800 mg, plasma, healthy adults (Parts A,B), single oral 800 mg, fasted"}, "[4]": {"conditions": "plasma, 1200 mg, plasma, healthy adults (Parts A,B), single oral 1200 mg, fasted"}, "[5]": {"conditions": "plasma, healthy adults (Parts A,B), single oral 10 mg, fasted"}, "[6]": {"conditions": "plasma, healthy adults (Parts A,B), single oral 25 mg, fasted"}, "[7]": {"conditions": "plasma, healthy adults (Parts A,B), single oral 50 mg, fasted"}, "[8]": {"conditions": "plasma, healthy adults (Parts A,B), single oral 75 mg, fasted"}, "[9]": {"conditions": "plasma, healthy adults (Parts A,B), single oral 100 mg, fasted"}, "[10]": {"conditions": "plasma, healthy adults (Parts A,B), single oral 200 mg, fasted"}, "[11]": {"conditions": "plasma, healthy adults (Parts A,B), single oral 400 mg, fasted"}, "[12]": {"conditions": "plasma, healthy adults (Parts A,B), single oral 800 mg, fasted"}, "[13]": {"conditions": "plasma, healthy adults (Parts A,B), single oral 1200 mg, fasted"}}, "note": "Values joined by “and” are separate entries in the source; they are usually repeats but may differ in a detail not shown here. Equal values may be shown once. Read-outs that look alike come from different tables or passages of the source.", "data": [{"smiles": "COc1ncc(C)c(-c2ccc3c(c2)[nH]c(=O)c2cnn([C@H]4CCOC4)c23)c1C", "note": "[Compound A, (S)-7-(2-methoxy-3,5-dimethylpyridin-4-yl)-1-(tetrahydrofuran-3-yl)-1H-pyrazolo[4,3-c]quin olin-4(5H)-one]", "values": [{"measurement": "AUC(0-inf)", "setting": "[1]", "result": 35800, "unit": "ng·h/mL"}, {"measurement": "Cmax", "setting": "plasma, 400 mg, plasma, Non-Japanese Subjects (Parts A,B), single oral 400 mg, read-out: Cmax GM (% CV)", "result": 827, "unit": "ng/mL"}, {"measurement": "Vd/F", "setting": "plasma, 400 mg, plasma, Non-Japanese Subjects (Parts A,B), single oral 400 mg, read-out: Vz/F GM (% CV)", "result": 511, "unit": "L"}, {"measurement": "half-life", "setting": "plasma, 400 mg, plasma, Non-Japanese Subjects (Parts A,B), single oral 400 mg, read-out: t1/2 Mean (SD) (converted)", "result": 2070, "unit": "min"}, {"measurement": "Tmax", "setting": "[1]", "result": 3, "unit": "h"}, {"measurement": "AUC(0-t)", "setting": "plasma, 400 mg, plasma, healthy adults (Parts A,B), single oral 400 mg, fasted, read-out: AUC(0-24 h) GM", "result": 12500, "unit": "ng·h/mL"}, {"measurement": "AUC(0-t)", "setting": "plasma, 400 mg, plasma, healthy adults (Parts A,B), single oral 400 mg, fasted, read-out: AUC(0-30 h) GM", "result": 15200, "unit": "ng·h/mL"}, {"measurement": "AUC(0-t)", "setting": "plasma, 400 mg, plasma, healthy adults (Parts A,B), single oral 400 mg, fasted, read-out: AUC(0-72 h) GM", "result": 27000, "unit": "ng·h/mL"}, {"measurement": "AUC(0-inf)", "setting": "[2]", "result": 36300, "unit": "ng·h/mL"}, {"measurement": "AUC(0-t)", "setting": "plasma, 400 mg, plasma, healthy adults (Parts A,B), single oral 400 mg, fasted, read-out: AUC(0-t) GM", "result": 35500, "unit": "ng·h/mL"}, {"measurement": "Cmax", "setting": "plasma, 400 mg, plasma, healthy adults (Parts A,B), single oral 400 mg, fasted, read-out: Cmax GM", "result": 880, "unit": "ng/mL"}, {"measurement": "Vd/F", "setting": "plasma, 400 mg, plasma, healthy adults (Parts A,B), single oral 400 mg, fasted, read-out: Vz/F GM", "result": 493, "unit": "L"}, {"measurement": "half-life", "setting": "plasma, 400 mg, plasma, healthy adults (Parts A,B), single oral 400 mg, fasted, read-out: t1/2 Mean (converted)", "result": 1990, "unit": "min"}, {"measurement": "Tmax", "setting": "[2]", "result": 2.5, "unit": "h"}, {"measurement": "AUC(0-t)", "setting": "plasma, 800 mg, plasma, healthy adults (Parts A,B), single oral 800 mg, fasted, read-out: AUC(0-24 h) GM", "result": 29200, "unit": "ng·h/mL"}, {"measurement": "AUC(0-t)", "setting": "plasma, 800 mg, plasma, healthy adults (Parts A,B), single oral 800 mg, fasted, read-out: AUC(0-30 h) GM", "result": 34500, "unit": "ng·h/mL"}, {"measurement": "AUC(0-t)", "setting": "plasma, 800 mg, plasma, healthy adults (Parts A,B), single oral 800 mg, fasted, read-out: AUC(0-72 h) GM", "result": 54700, "unit": "ng·h/mL"}, {"measurement": "AUC(0-inf)", "setting": "[3]", "result": 65000, "unit": "ng·h/mL"}, {"measurement": "AUC(0-t)", "setting": "plasma, 800 mg, plasma, healthy adults (Parts A,B), single oral 800 mg, fasted, read-out: AUC(0-t) GM", "result": 64300, "unit": "ng·h/mL"}, {"measurement": "Cmax", "setting": "plasma, 800 mg, plasma, healthy adults (Parts A,B), single oral 800 mg, fasted, read-out: Cmax GM", "result": 2570, "unit": "ng/mL"}, {"measurement": "Vd/F", "setting": "plasma, 800 mg, plasma, healthy adults (Parts A,B), single oral 800 mg, fasted, read-out: Vz/F GM", "result": 438, "unit": "L"}, {"measurement": "half-life", "setting": "plasma, 800 mg, plasma, healthy adults (Parts A,B), single oral 800 mg, fasted, read-out: t1/2 Mean (converted)", "result": 1510, "unit": "min"}, {"measurement": "Tmax", "setting": "[3]", "result": 3.55, "unit": "h"}, {"measurement": "AUC(0-t)", "setting": "plasma, 1200 mg, plasma, healthy adults (Parts A,B), single oral 1200 mg, fasted, read-out: AUC(0-24 h) GM", "result": 28500, "unit": "ng·h/mL"}, {"measurement": "AUC(0-t)", "setting": "plasma, 1200 mg, plasma, healthy adults (Parts A,B), single oral 1200 mg, fasted, read-out: AUC(0-30 h) GM", "result": 34800, "unit": "ng·h/mL"}, {"measurement": "AUC(0-t)", "setting": "plasma, 1200 mg, plasma, healthy adults (Parts A,B), single oral 1200 mg, fasted, read-out: AUC(0-72 h) GM", "result": 60600, "unit": "ng·h/mL"}, {"measurement": "AUC(0-inf)", "setting": "[4]", "result": 79700, "unit": "ng·h/mL"}, {"measurement": "AUC(0-t)", "setting": "plasma, 1200 mg, plasma, healthy adults (Parts A,B), single oral 1200 mg, fasted, read-out: AUC(0-t) GM", "result": 78400, "unit": "ng·h/mL"}, {"measurement": "Cmax", "setting": "plasma, 1200 mg, plasma, healthy adults (Parts A,B), single oral 1200 mg, fasted, read-out: Cmax GM", "result": 1780, "unit": "ng/mL"}, {"measurement": "Vd/F", "setting": "plasma, 1200 mg, plasma, healthy adults (Parts A,B), single oral 1200 mg, fasted, read-out: Vz/F GM", "result": 666, "unit": "L"}, {"measurement": "half-life", "setting": "plasma, 1200 mg, plasma, healthy adults (Parts A,B), single oral 1200 mg, fasted, read-out: t1/2 Mean (converted)", "result": 1910, "unit": "min"}, {"measurement": "Tmax", "setting": "[4]", "result": 3.02, "unit": "h"}, {"measurement": "tlag Median (Min, Max)", "setting": "plasma, single oral 100 mg, Fasted", "result": "0 (0.00, 0.00) h"}, {"measurement": "tlag Median (Min, Max)", "setting": "plasma, single oral 100 mg, Fed (high-fat meal)", "result": "0.49 (0.00, 0.88) h"}, {"measurement": "CL/F GM", "setting": "[5]", "result": 5.41, "unit": "L/h"}, {"measurement": "tlag Median", "setting": "[5]", "result": 0.50, "unit": "h"}, {"measurement": "CL/F GM", "setting": "[6]", "result": 5.76, "unit": "L/h"}, {"measurement": "tlag Median", "setting": "[6]", "result": 0.00, "unit": "h"}, {"measurement": "CL/F GM", "setting": "[7]", "result": 6.33, "unit": "L/h"}, {"measurement": "tlag Median", "setting": "[7]", "result": 0.00, "unit": "h"}, {"measurement": "CL/F GM", "setting": "[8]", "result": 7.57, "unit": "L/h"}, {"measurement": "tlag Median", "setting": "[8]", "result": 0.00, "unit": "h"}, {"measurement": "AUC(0-inf) GM", "setting": "[9]", "result": "15000 (20.0) h × ng/mL"}, {"measurement": "CL/F GM", "setting": "[9]", "result": "6.66 L/h and 6.66 (20.1) L/h"}, {"measurement": "Cmax GM", "setting": "[9]", "result": "373 (19.8) ng/mL"}, {"measurement": "t1/2 Mean", "setting": "[9]", "result": "28.6 (6.73) h"}, {"measurement": "tlag Median", "setting": "[9]", "result": 0.00, "unit": "h"}, {"measurement": "CL/F GM", "setting": "[10]", "result": 8.93, "unit": "L/h"}, {"measurement": "tlag Median", "setting": "[10]", "result": 0.00, "unit": "h"}, {"measurement": "CL/F GM", "setting": "[11]", "result": 11.0, "unit": "L/h"}, {"measurement": "tlag Median", "setting": "[11]", "result": 0.00, "unit": "h"}, {"measurement": "CL/F GM", "setting": "[12]", "result": 12.3, "unit": "L/h"}, {"measurement": "tlag Median", "setting": "[12]", "result": 0.00, "unit": "h"}, {"measurement": "CL/F GM", "setting": "[13]", "result": 15.1, "unit": "L/h"}, {"measurement": "tlag Median", "setting": "[13]", "result": 0.00, "unit": "h"}, {"measurement": "time to quantifiable plasma concentrations postdose (most subjects)", "setting": "single doses of 10 to 1200 mg", "result": "≤ 0.5", "unit": "h"}]}]}
